Measurements from patent publication US20260217708A1, “FUSED BENZAZEPINE DERIVATIVES FOR USE IN THE TREATMENT OF CANCER AND EPILEPSY” (UCB BIOPHARMA SRL, priority 2023, published 2026).

Assays:
system Xc^− [1] = target: T1, system Xc^− (Homo sapiens, UniProt Q9UPY5); experiment: [^14C]L-Cystine uptake assay; type: cell-based; parameters: endogenous in cells; host or cells: H4 cells; conditions: H4 cells, sodium-free HEPES buffer, 0.5 μM L-[14C]Cystine and 4.5 μM L-Cystine, 1 hour at 37° C.; read-out: pIC50 [^14C] L-Cystine uptake assay (converted)
T1 sequence (Q9UPY5 1-501): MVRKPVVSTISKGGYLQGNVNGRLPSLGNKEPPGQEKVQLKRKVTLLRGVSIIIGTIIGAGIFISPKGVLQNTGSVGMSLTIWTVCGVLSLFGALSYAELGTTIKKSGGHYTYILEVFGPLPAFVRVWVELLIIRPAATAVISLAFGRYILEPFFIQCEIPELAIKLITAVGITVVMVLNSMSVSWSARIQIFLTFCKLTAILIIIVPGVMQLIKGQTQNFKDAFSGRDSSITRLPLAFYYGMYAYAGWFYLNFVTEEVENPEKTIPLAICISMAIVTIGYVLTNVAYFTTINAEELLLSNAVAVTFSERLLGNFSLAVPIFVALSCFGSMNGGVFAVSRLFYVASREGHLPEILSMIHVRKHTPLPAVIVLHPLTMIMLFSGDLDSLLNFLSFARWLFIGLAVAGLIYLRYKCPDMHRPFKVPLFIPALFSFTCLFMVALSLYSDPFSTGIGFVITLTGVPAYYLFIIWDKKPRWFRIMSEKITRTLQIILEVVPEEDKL
T1 sequence (P08195 1-529 partner): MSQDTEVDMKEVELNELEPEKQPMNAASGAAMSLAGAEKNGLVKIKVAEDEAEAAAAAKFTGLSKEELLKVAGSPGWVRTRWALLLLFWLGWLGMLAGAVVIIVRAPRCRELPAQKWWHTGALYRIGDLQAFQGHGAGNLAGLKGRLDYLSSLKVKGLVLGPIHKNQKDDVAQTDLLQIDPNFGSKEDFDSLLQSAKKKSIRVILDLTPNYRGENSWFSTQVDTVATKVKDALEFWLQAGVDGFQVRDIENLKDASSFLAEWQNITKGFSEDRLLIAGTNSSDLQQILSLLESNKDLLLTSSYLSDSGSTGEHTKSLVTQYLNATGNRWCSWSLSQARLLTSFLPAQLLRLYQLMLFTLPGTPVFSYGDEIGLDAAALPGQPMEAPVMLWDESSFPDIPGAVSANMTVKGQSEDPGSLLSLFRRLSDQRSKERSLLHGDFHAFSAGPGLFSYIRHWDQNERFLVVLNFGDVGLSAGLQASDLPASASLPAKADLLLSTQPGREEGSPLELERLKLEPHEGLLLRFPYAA
Outline: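 H4 cells at 5×10^4 cells/well in sodium-free HEPES buffer were preincubated 15 min with compounds (1% DMSO). Uptake of 0.5 μM [14C]L-cystine plus 4.5 μM unlabelled L-cystine ran 1 hour at 37° C on scintillating plates. IC50 was set between 1% DMSO and 50 μM Erastin controls and expressed as pIC50.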

system Xc^− [2] = target: T1, system Xc^−; experiment: Cystine-induced glutamate release assay; type: cell-based; parameters: endogenous in cells; host or cells: H4 cells; conditions: H4 cells, sodium-free HEPES buffer, 50 μM L-Cystine, 2 hours, Amplex Red glutamate readout; read-out: pIC50 Cystine-induced glutamate release assay (converted)
Outline: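 H4 cells in sodium-free HEPES buffer (pH 7.4), 2 days after plating; glutamate release induced with 50 μM L-cystine plus compound (1% DMSO), 2 h at 37 °C. Supernatant glutamate measured by Amplex Red fluorescence; IC50/pIC50 derived between 1% DMSO and 50 μM erastin controls.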

Row | Compound | IC50 (system Xc^− [1]) [nM] | IC50 (system Xc^− [2]) [nM]
1 | CC1C(=O)N(CC(=O)Nc2ccc(C(F)F)cc2)c2cc(C3CC3)nc(Cl)c2-c2cccnc21 (centres unmarked) [#347, 2-(3-chloro-5-cyclopropyl-10-methyl-9-oxo-4,8,12-triazatricyclo[9.4.0.0^2,7]pentadeca-1(15),2,4,6,11,13-hexaen-8-yl)-N-[4-(difluoromethyl)phenyl]acetamide] | 15.8 to 39.8 | 39.8 to 100
2 | CCn1c2c(cc(C)c1=O)N(CC(=O)Nc1ccc(Cl)c(F)c1)C(=O)C(C)c1ccccc1-2 (centres unmarked) [#349, N-(4-chloro-3-fluoro-phenyl)-2-(1-ethyl-3,7-dimethyl-2,6-dioxo-7H-pyrido[3,2-d][3]benzazepin-5-yl)acetamide] | < 15.8 | 15.8 to 39.8
3 | Cc1cc2c(n(C)c1=O)-c1ccccc1CC(=O)N2CC(=O)Nc1ccc(Cl)c(F)c1 [#350, N-(4-chloro-3-fluoro-phenyl)-2-(1,3-dimethyl-2,6-dioxo-7H-pyrido[3,2-d][3]benzazepin-5-yl)acetamide] | 15.8 to 39.8 | 15.8 to 39.8
4 | CC1C(=O)N(CC(=O)Nc2ccc(Cl)c(F)c2)c2ccn(C)c(=O)c2-c2ccccc21 (centres unmarked) [#351, N-(4-chloro-3-fluoro-phenyl)-2-(2,7-dimethyl-1,6-dioxo-7H-pyrido[4,3-d][3]benzazepin-5-yl)acetamide] | 39.8 to 100 | 39.8 to 100
5 | Cc1cc2c(c(=O)n1C)-c1ccc(Cl)cc1C(C)C(=O)N2CC(=O)Nc1ccc(Cl)c(F)c1 (centres unmarked) [#352, N-(4-chloro-3-fluoro-phenyl)-2-(9-chloro-2,3,7-trimethyl-1,6-dioxo-7H-pyrido[4,3-d][3]benzazepin-5-yl)acetamide] | < 15.8 | 15.8 to 39.8
6 | Cc1cc2c(n(C)c1=O)-c1ccnn1C(C)C(=O)N2CC(=O)Nc1ccc(Cl)c(F)c1 (centres unmarked) [#353, N-(4-chloro-3-fluoro-phenyl)-2-(7,12,14-trimethyl-8,13-dioxo-5,6,9,14-tetrazatricyclo[8.4.0.0^2,6]tetradeca-1(10),2,4,11-tetraen-9-yl)acetamide] | 39.8 to 100 | 15.8 to 39.8
7 | Cc1cc2c(n(C)c1=O)-c1ccc(F)cc1C(C)C(=O)N2CC(=O)Nc1ccc(Cl)c(F)c1 (centres unmarked) [#354, N-(4-chloro-3-fluoro-phenyl)-2-(9-fluoro-1,3,7-trimethyl-2,6-dioxo-7H-pyrido[3,2-d][3]benzazepin-5-yl)acetamide] | < 15.8 | 15.8 to 39.8
8 | Cc1c2c(cc(=O)n1C)N(CC(=O)Nc1ccc(Cl)c(F)c1)C(=O)C(C)c1ccccc1-2 (centres unmarked) [#355, N-(4-chloro-3-fluoro-phenyl)-2-(1,2,7-trimethyl-3,6-dioxo-7H-pyrido[3,4-a][3]benzazepin-5-yl)acetamide] | 39.8 to 100 | 15.8 to 39.8
9 | Cc1cc2c(c(F)n1)-c1ccn(C)c(=O)c1C(C)C(=O)N2CC(=O)Nc1ccc(Cl)c(F)c1 (centres unmarked) [#356, N-(4-chloro-3-fluoro-phenyl)-2-(3-fluoro-5,10,13-trimethyl-9,12-dioxo-4,8,13-triazatricyclo[9.4.0.0^2,7]pentadeca-1(11),2,4,6,14-pentaen-8-yl)acetamide] | 39.8 to 100 | 39.8 to 100
10 | Cc1cc2c(c(=O)n1C)-c1sccc1C(C)C(=O)N2CC(=O)Nc1ccc(C(F)F)cc1 (centres unmarked) [#361, N-[4-(difluoromethyl)phenyl]-2-(7,12,13-trimethyl-8,14-dioxo-3-thia-9,13-diazatricyclo[8.4.0.0^2,6]tetradeca-1(10),2(6),4,11-tetraen-9-yl)acetamide] | < 15.8 | 15.8 to 39.8
11 | COc1cc2c(c(=O)n1C)-c1ccccc1C(C)C(=O)N2CC(=O)Nc1ccc(C(F)F)cc1 (centres unmarked) [#362, N-[4-(difluoromethyl)phenyl]-2-(3-methoxy-2,7-dimethyl-1,6-dioxo-7H-pyrido[4,3-d][3]benzazepin-5-yl)acetamide] | < 15.8 | 15.8 to 39.8
12 | CC1C(=O)N(CC(=O)Nc2ccc(Cl)c(F)c2)c2cc(CO)c(=O)n(C)c2-c2ccccc21 (centres unmarked) [#363, N-(4-chloro-3-fluoro-phenyl)-2-[3-(hydroxymethyl)-1,7-dimethyl-2,6-dioxo-7H-pyrido[3,2-d][3]benzazepin-5-yl]acetamide] | 39.8 to 100 | 15.8 to 39.8
13 | CC1C(=O)N(CC(=O)Nc2ccc(Cl)c(F)c2)c2ccn(C(F)F)c(=O)c2-c2cccnc21 (centres unmarked) [#366, N-(4-chloro-3-fluoro-phenyl)-2-[4-(difluoromethyl)-10-methyl-3,9-dioxo-4,8,12-triazatricyclo[9.4.0.0^2,7]pentadeca-1(15),2(7),5,11,13-pentaen-8-yl]acetamide] | 39.8 to 100 | 39.8 to 100
14 | Cc1cc(F)c2c(c1)N(CC(=O)Nc1ccc(C(F)F)cc1)C(=O)C(C)c1ncncc1-2 (centres unmarked) [#370, N-[4-(difluoromethyl)phenyl]-2-(11-fluoro-5,9-dimethyl-6-oxo-5H-pyrimido[4,5-d][1]benzazepin-7-yl)acetamide] | 39.8 to 100 | 39.8 to 100
15 | Cc1cc2c(c(OCCO)n1)-c1cccnc1[C@@H](C)C(=O)N2CC(=O)Nc1ccc(C(F)F)cc1 [#374, N-[4-(difluoromethyl)phenyl]-2-[(10R)-3-(2-hydroxyethoxy)-5,10-dimethyl-9-oxo-4,8,12-triazatricyclo[9.4.0.0^2,7]pentadeca-1(11),2(7),3,5,12,14-hexaen-8-yl]acetamide] | < 15.8 | < 15.8
16 | CC1C(=O)N(CC(=O)Nc2ccc(Cl)c(F)c2)c2cc(OCCO)nc(F)c2-c2cccnc21 (centres unmarked) [#375, N-(4-chloro-3-fluoro-phenyl)-2-[3-fluoro-5-(2-hydroxyethoxy)-10-methyl-9-oxo-4,8,12-triazatricyclo[9.4.0.0^2,7]pentadeca-1(15),2,4,6,11,13-hexaen-8-yl]acetamide] | < 15.8 | < 15.8
17 | CC1C(=O)N(CC(=O)Nc2ccc(Cl)c(F)c2)c2cc(F)nc(OCCO)c2-c2cccnc21 (centres unmarked) [#376, N-(4-chloro-3-fluoro-phenyl)-2-[5-fluoro-3-(2-hydroxyethoxy)-10-methyl-9-oxo-4.8,12-triazatricyclo[9.4.0.0^2,7]pentadeca-1(15),2,4,6,11,13-hexaen-8-yl]acetamide] | 39.8 to 100 | 15.8 to 39.8
18 | CC1C(=O)N(CC(=O)Nc2ccc(C(F)F)cc2)c2cc(OC3CN(C)C3)nc(F)c2-c2cccnc21 (centres unmarked) [#378, N-[4-(difluoromethyl)phenyl]-2-[3-fluoro-10-methyl-5-(1-methylazetidin-3-yl)oxy-9-oxo-4,8,12-triazatricyclo[9.4.0.0^2,7]pentadeca-1(15),2,4,6,11,13-hexaen-8-yl]acetamide] | 39.8 to 100 | 15.8 to 39.8
19 | Cc1cc2c(c(Cl)n1)-c1cccnc1C(O)C(=O)N2CC(=O)Nc1ccc(C(F)(F)F)cc1 (centres unmarked) [#379, 2-(3-chloro-10-hydroxy-5-methyl-9-oxo-4,8,12-triazatricyclo[9.4.0.0^2,7]pentadeca-1(15),2(7),3,5,11,13-hexaen-8-yl)-N-[4-(trifluoromethyl)phenyl]acetamide] | < 15.8 | 15.8 to 39.8
20 | CC1C(=O)N(CC(=O)Nc2ccc(C(F)F)cc2)c2cc(C#N)cc(Cl)c2-c2ccnn21 (centres unmarked) [#388, 2-(11-chloro-9-cyano-5-methyl-6-oxo-5H-pyrazolo[1,5-d][1,4]benzodiazepin-7-yl)-N-[4-(difluoromethyl)phenyl]acetamide] | 15.8 to 39.8 | 15.8 to 39.8
21 | COc1nc(C)cc2c1-c1ccccc1CC(=O)N2CC(=O)Nc1ccc(C(F)(F)F)cc1 [#390, 2-(1-methoxy-3-methyl-6-oxo-7H-pyrido[4,3-d][3]benzazepin-5-yl)-N-[4-(trifluoromethyl)phenyl]acetamide] | 15.8 to 39.8 | 15.8 to 39.8
22 | Cc1cc2c(c(F)n1)-c1cc(F)cnc1CC(=O)N2CC(=O)Nc1ccc(C(F)(F)F)cc1 [#391, 2-(3,14-difluoro-5-methyl-9-oxo-4,8,12-triazatricyclo[9.4.0.0^2,7]pentadeca-1(15),2(7),3,5,11,13-hexaen-8-yl)-N-[4-(trifluoromethyl)phenyl]acetamide] | 15.8 to 39.8 | 100 to 501
